Laboratory results from publication PMC5874699, “Antimicrobial and Antibiofilm Activity of UP-5, an Ultrashort Antimicrobial Peptide Designed Using Only Arginine and Biphenylalanine” (Pharmaceuticals, 2018).
Like-named read-outs stand apart in the source and are kept apart here. Square brackets hold non-standard residues; d marks the D form. Peptide text beside a SMILES is read from it. Bip = N[C@@H](Cc1ccc(-c2ccccc2)cc1)C(=O)O

Key:
[1] = system: Staphylococcus aureus (ATCC 29213); type: cell-based; details: ATCC 29213, 24 h
Source text: (§1) All bacterial susceptibility, biofilm, and synergistic assays of peptides, antibiotics, and peptides-antibiotics combinations used bacterial strains obtained from the American Type Tissue Culture Collection (ATCC, Manassas, VA, USA) that states the mechanism of resistance for each strain according to ATCC number. Gram-positive bacteria were represented by five strains, the wild type strain Staphylococcus aureus (ATCC 29213) and methicillin-resistant S. aureus (MRSA) (ATCC 33591) in addition to clinically isolated strains S. aureus (ATCC BAA-41& 43300) and Enterococcus faecalis (ATCC BAA-2316). The Gram-negative bacteria strains were represented by wild type strains of Escherichia coli (ATCC 25922 & 35218) and Pseudomonas aeruginosa (ATCC 27853) as well as the clinically isolated multidrug-resistant strain P. aeruginosa (ATCC BAA-2114). The bacteria were cultured onto Muller Hinton Agar (Scharlab, S.L, Barcelona, Spain). Mueller Hinton Broth (Oxoid Ltd., Basingstoke, UK) was used to prepare all bacterial suspensions and to dissolve the peptides and the antibiotics. The assay was performed in sterile 96-well polypropylene microtiter plates.
(§2) All bacterial susceptibility assays were conducted according to the microbroth dilution method outlined by the Clinical and Laboratory Standards Institute (CLSI) guidelines.
(§3) Briefly, pre-sterilized MHB was used as a growth medium for organisms obtained from stock media with glycerol. Bacterial cells were grown overnight in MHB and diluted to 10^6 CFU/mL in the same medium prior to use. For peptide, serial concentrations in the range of 0.5–100 μM were prepared. Then, 50 μL of each peptide concentration and 50 µL of diluted bacterial suspension were added to each well of a 96-well microtiter plate. Peptide solutions were prepared by dissolving the peptide in sterile MHB. Then, the plates were incubated overnight in a humidified atmosphere, and at 37 °C. Bacterial growth was determined by measuring the optical density (OD) at λ = 600 nm using an ELISA plate reader (Epoch, BioTek, Winooski, VT, USA) and the minimum inhibitory concentration (MIC) was determined.
As described in the previous section, the MIC and MBC values of antibiotics employed in this study were determined against subjected bacterial strains via preparing different concentrations of each antibiotic.

[2] = system: Enterococcus faecalis (ATCC BAA-2316); type: cell-based; details: ATCC BAA-2316, 24 h
Source text: as §1, §2, §3

[3] = system: Escherichia coli (ATCC 25922); type: cell-based; details: ATCC 25922, 24 h
Source text: as §1, §2, §3

[4] = system: Escherichia coli (ATCC 35218); type: cell-based; details: ATCC 35218, 24 h
Source text: as §1, §2, §3

[5] = system: Pseudomonas aeruginosa (ATCC 27853); type: cell-based; details: ATCC 27853, 24 h
Source text: as §1, §2, §3

human erythrocytes = type: cell-based
Description: Two milliliters of human blood were placed into a 50 mL centrifuge tube and centrifuged (3000× g). The supernatant was discarded, the cell pellet re-suspended in 48 mL of PBS, and centrifuged as above; this step was repeated twice. Finally, 2 mL of cell pellet were re-suspended in a sterile tube containing 48 mL PBS to reach a final concentration of 4% RBC. […] Positive controls were prepared by adding 5 µL of 0.1% (Triton 100X) to 2 mL of 4% RBC suspension and negative controls were prepared by adding 2 mL of 4% RBC suspension only. All preparations were incubated for 60 min at 37 °C. Next, the tubes were gently vortexed and 1 mL of each sample were removed and placed into sterilized eppendorf tubes and then centrifuged (3000× g). Then, 200 µL of each supernatant was placed into a 96 well-plate. Absorbance was measured at λ = 450 nm with the aid of an ELISA reader. The percentage hemolysis was calculated according to the following equation:(2) % Hemolysis=A−AO/AX−AO×100 where A is the optical density at 450 nm (OD450) of the peptide solution, AO is the OD450 of the negative control (0.9% NaCl) and AX is the OD450 of the positive control (0.1% Triton 10X).

in vitro = in vitro ADME; details: mouse
Description: The stability assay of UP-5 relied on a previously reported stability test procedure employing mouse plasma or mouse serum (PAA Laboratories, Pasching, Austria). Briefly, a stock solution of the peptide was prepared in 5% aqueous DMSO. The highest DMSO concentration was less than 0.5% after dilution in order to have a final concentration of peptide equal to 1 g/L. Each peptide was dissolved in plasma or serum at a final concentration corresponding to 75 µg/mL and incubated at 37 °C (750 rpm, Eppendorf, Hamburg, Germany). After different time periods, aliquots (47.5 µL) were taken and proteins were precipitated by addition of 150 µL of a mixture composed acetonitrile, water, and formic acid (89:10:1 by volume). The samples were incubated on ice for 45 min and centrifuged for 10 min at 13,000× g (Eppendorf, Hamburg, Germany). […] The second supernatant (155 µL) was collected and dried under vacuum. The samples were dissolved in 3% aqueous acetonitrile containing, 0.1% formic acid, and were analyzed using an Agilent 1100 HPLC system (Agilent Technologies, Santa Clara, CA, USA), coupled online to an Esquire HCT mass spectrometer (Bruker Daltonik GmbH, Bremen, Germany) equipped with an analytical Jupiter C18-reversed phase column (2 mm inner diameter, 150 mm length, 5 µm particle size, […]). Eluent A contained 0.1% formic acid in water and Eluent B was 60% aqueous acetonitrile containing 0.1% formic acid.

- MIC Value [1]: 10 µM
- MIC Value [2]: 70 µM
- MIC Value [3]: 55 µM
- MIC Value [4]: 60 µM
- MIC Value [5]: 65 µM
- half-life at 75 µg/mL (in vitro; plasma): 2.88 h
- metabolised at 1 h, 75 µg/mL (in vitro; plasma): 27%
- metabolised at 4 h, 75 µg/mL (in vitro; plasma): 66%
- remaining at 1 h, 75 µg/mL (in vitro; plasma): 73%
- remaining at 4 h, 75 µg/mL (in vitro; plasma): 34%
- half-life at 75 µg/mL (in vitro; serum): < 0.25 h
- metabolised at 0.25 h, 75 µg/mL (in vitro; serum): > 80%
SMILES: N=C(N)NCCC[C@H](NC(=O)[C@H](Cc1ccc(-c2ccccc2)cc1)NC(=O)[C@H](CCCNC(=N)N)NC(=O)[C@H](Cc1ccc(-c2ccccc2)cc1)NC(=O)[C@@H](N)CCCNC(=N)N)C(=O)O [UP-5] (H-R[Bip]R[Bip]R-OH)
- MBC Value [1]: 10 µM
- MBC Value [2]: 70 µM
- MBC Value [3]: 55 µM
- MBC Value [4]: 60 µM
- MBC Value [5]: 65 µM
- Hemolysis (%) (human erythrocytes; 40 µM): 0.09%
- Hemolysis (%) (human erythrocytes; 60 µM): 1.01%
- Hemolysis (%) (human erythrocytes; 80 µM): 1.04%
- Hemolysis (%) (human erythrocytes; 150 µM): 3.0%
- Hemolysis (%) (human erythrocytes; 175 µM): 3.04%
